From patent EP0222912A1, “AGENT FOR TREATING ARTERIOSCLEROSIS” (ZERIA SHINYAKU KOGYO KABUSHIKI KAISHA, priority 1984, dated 1985)

Columns and labels:
Assay type in all cases: in vivo
SD rats = test: acute toxicity, oral, rats; conditions: 5 g/kg orally, five SD rats
Description: (§1) In order to examine the acute toxicity of cycloartenol ferulate, it was orally administered to five dd mice and five SD rats.

male SD rats [1] = test: hyperlipemia induced by Triton WR-1339; conditions: 10 mg/kg intravenously with 300 mg/kg Triton WR-1339, blood 43 hours after injection
Procedure: In order to examine the mechanism of the lipid decreasing effect of cycloartenol ferulate the effect of the same on hyperlipemia induced by a surfactant (Triton WR-1339) was confirmed.
The test was conducted with male SD rats aged six weeks. 300 mg/kg of Triton WR-1339 was intravenously injected to each rat of the first group to thereby induce hyperlipemia (Triton control group), while 10 mg/kg of cycloartenol ferulate or 10 mg/kg of γ-oryzanol was intravenously injected simultaneously with 300 mg/kg of Triton WR-1339 to each rat of other groups, thus examining the effect of decreasing lipids. Blood of each animal was collected 43 hours after the intravenous injection.

dd mice = test: acute toxicity, oral, mice; conditions: 5 g/kg orally, five dd mice
Description: as §1

male SD rats [2] = system: male SD rats
Procedure: In order to examine the effect of decreasing lipids, male SD rats aged four weeks were classified into the following four groups: i.e. (1) an ordinary diet group (control); (2) a cholesterol diet group; (3) a cholesterol diet group to which cycloartenol ferulate was administered; and (4) a cholesterol diet group to which γ-oryzanol was administered.
Cycloartenol ferulate or γ-oryzanol was orally administered for 12 days repeatedly with the use of a metal probe. Each compound was administered in doses of 100 mg/kg, 500 mg/kg and 1000 mg/kg per animal a day. After each administration, blood of the animal was collected to determine free cholesterol (FC), triglyceride (TG) and phospholipids (PL) contained therein.

Question: For `COc1cc(/C=C/C(=O)O[C@H]2CC[C@]34C[C@]35CC[C@]3(C)[C@@H]([C@H](C)CCC=C(C)C)CC[C@@]3(C)[C@@H]5CC[C@H]4C2(C)C)ccc1O` [cycloartenol ferulate], which acute toxicity (SD rats) is on record?
Answer: no animal died nor showed any toxic symptom

Question: And the TC (male SD rats [1]; vs Triton control group and γ-oryzanol group (Fig. 13))?
Answer: significant decreases

Question: What about the FC (male SD rats [1]; vs Triton control group and γ-oryzanol group (Fig. 14)) of the same compound?
Answer: significant decreases

Question: What about the TG (male SD rats [1]; vs Triton control group and γ-oryzanol group (Fig. 15)) of the same compound?
Answer: significant decreases

Question: What about the acute toxicity (dd mice) of the same compound?
Answer: no animal died nor showed any toxic symptom

Question: And the “free cholesterol (FC)” value (male SD rats [2]; blood, cholesterol diet, oral, 12 days, 100, 500 and 1000 mg/kg a day, vs cholesterol diet group (Fig. 5))?
Answer: lower than that of the cholesterol diet group to a statistically significant extent

Question: And the “triglyceride (TG)” value (male SD rats [2]; blood, cholesterol diet, oral, 12 days, 100, 500 and 1000 mg/kg a day, vs cholesterol diet group (Fig. 6))?
Answer: lower than that of the cholesterol diet group to a statistically significant extent

Question: What about the “phospholipids (PL)” value (male SD rats [2]; blood, cholesterol diet, oral, 12 days, 100, 500 and 1000 mg/kg a day, vs cholesterol diet group (Fig. 7)) of the same compound?
Answer: lower than that of the cholesterol diet group to a statistically significant extent

Question: And the body weight gain (male SD rats [2]; cholesterol diet suppresses body weight gain, oral, 12 days (Fig. 12))?
Answer: accelerated the growth of animals

Question: And the arteriosclerosis index (male SD rats [2]; cholesterol diet, oral, 12 days (Fig. 9))?
Answer: remarkably lowers this index

Question: And the “HDL-cholesterol (HDLC)” value (male SD rats [2]; cholesterol diet, oral, 12 days, vs cholesterol diet group (Fig. 8))?
Answer: increase HDLC to a statistically significant extent

Question: And the GOT (male SD rats [2]; rat, in vivo, po)?
Answer: no changes

Question: What about the GPT (male SD rats [2]; rat, in vivo, po) of the same compound?
Answer: no changes
